In PubChem BioAssay (NCI):
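Test compounds were applied to cells in 96-well plates for 48 hours at 5 doses. Here, GI50 denotes the concentration required for 50% inhibition of growth. TGI marks complete inhibition of growth.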

Tests used:
Test in all cases: DTP human tumour cell line panel, 48 h
EKVX NSCLC = test system: EKVX NSCLC
IGROV1 ovarian = test system: IGROV1 ovarian
SN12C renal = test system: SN12C renal
NCI-H226 lung = test system: NCI-H226 lung
MCF7 breast = test system: MCF7 breast
BT-549 breast = test system: BT-549 breast
COLO 205 colon = test system: COLO 205 colon
HOP-92 NSCLC = test system: HOP-92 NSCLC
HCT-15 colon = test system: HCT-15 colon
786-0 renal = test system: 786-0 renal
U251 CNS = test system: U251 CNS
SK-MEL-5 melanoma = test system: SK-MEL-5 melanoma
NCI-H23 lung = test system: NCI-H23 lung
HT29 colon = test system: HT29 colon
LOX IMVI melanoma = test system: LOX IMVI melanoma
DU-145 prostate = test system: DU-145 prostate
SK-MEL-2 melanoma = test system: SK-MEL-2 melanoma
SF-295 CNS = test system: SF-295 CNS
SR leukemia = test system: SR leukemia
SF-268 CNS = test system: SF-268 CNS
TK-10 renal = test system: TK-10 renal
MALME-3M melanoma = test system: MALME-3M melanoma
HCC-2998 colon = test system: HCC-2998 colon
A549 NSCLC = test system: A549 NSCLC
A498 renal = test system: A498 renal
SK-MEL-28 melanoma = test system: SK-MEL-28 melanoma
CAKI-1 renal = test system: CAKI-1 renal
KM12 colon = test system: KM12 colon
T-47D breast = test system: T-47D breast
NCI-H460 lung = test system: NCI-H460 lung
HOP-62 NSCLC = test system: HOP-62 NSCLC
ACHN renal = test system: ACHN renal
CCRF-CEM leukemia = test system: CCRF-CEM leukemia
MOLT-4 leukemia = test system: MOLT-4 leukemia
OVCAR-3 ovarian = test system: OVCAR-3 ovarian
SNB-19 CNS = test system: SNB-19 CNS
SW-620 colon = test system: SW-620 colon
MDA-MB-435 = test system: MDA-MB-435
OVCAR-8 ovarian = test system: OVCAR-8 ovarian
SNB-75 CNS = test system: SNB-75 CNS
PC-3 prostate = test system: PC-3 prostate
RPMI-8226 leukemia = test system: RPMI-8226 leukemia
OVCAR-5 ovarian = test system: OVCAR-5 ovarian
SF-539 CNS = test system: SF-539 CNS
OVCAR-4 ovarian = test system: OVCAR-4 ovarian
NCI-H522 lung = test system: NCI-H522 lung
NCI/ADR-RES ovarian = test system: NCI/ADR-RES ovarian
UACC-62 melanoma = test system: UACC-62 melanoma
HS 578T breast = test system: HS 578T breast
HCT-116 colon = test system: HCT-116 colon
HL-60(TB) leukemia = test system: HL-60(TB) leukemia
M14 melanoma = test system: M14 melanoma
K-562 leukemia = test system: K-562 leukemia
RXF 393 renal = test system: RXF 393 renal
MDA-MB-231 breast = test system: MDA-MB-231 breast
UACC-257 melanoma = test system: UACC-257 melanoma
SK-OV-3 ovarian = test system: SK-OV-3 ovarian
UO-31 renal = test system: UO-31 renal

C[C@@H](Oc1ccc(C(=O)NS(=O)(=O)C(C)(C)C)cc1C(F)(F)F)c1ccc(Oc2ccccc2)cn1
GI50 (EKVX NSCLC): 4.35 µM
TGI (EKVX NSCLC): 20.3 µM
GI50 (IGROV1 ovarian): 2.64 µM
TGI (IGROV1 ovarian): 13.7 µM
GI50 (SN12C renal): 4.58 µM
TGI (SN12C renal): 18.6 µM
GI50 (NCI-H226 lung): 2.76 µM
TGI (NCI-H226 lung): 8.5 µM
GI50 (MCF7 breast): 2.65 µM
TGI (MCF7 breast): 13.6 µM
GI50 (BT-549 breast): 2.06 µM
TGI (BT-549 breast): 5.83 µM
GI50 (COLO 205 colon): 2.67 µM
TGI (COLO 205 colon): 7.95 µM
GI50 (HOP-92 NSCLC): 1.78 µM
TGI (HOP-92 NSCLC): 11.7 µM
GI50 (HCT-15 colon): 2.53 µM
TGI (HCT-15 colon): 10.5 µM
GI50 (786-0 renal): 3.01 µM
TGI (786-0 renal): 13 µM
GI50 (U251 CNS): 3.18 µM
TGI (U251 CNS): 13.6 µM
GI50 (SK-MEL-5 melanoma): 1.68 µM
TGI (SK-MEL-5 melanoma): 4.75 µM
GI50 (NCI-H23 lung): 5.14 µM
TGI (NCI-H23 lung): 23.3 µM
GI50 (HT29 colon): 3.1 µM
TGI (HT29 colon): 8.38 µM
GI50 (LOX IMVI melanoma): 2.8 µM
TGI (LOX IMVI melanoma): 10.8 µM
GI50 (DU-145 prostate): 3.82 µM
TGI (DU-145 prostate): 14.3 µM
GI50 (SK-MEL-2 melanoma): 6.56 µM
TGI (SK-MEL-2 melanoma): 23.3 µM
GI50 (SF-295 CNS): 2.21 µM
TGI (SF-295 CNS): 6.89 µM
GI50 (SR leukemia): 1.29 µM
TGI (SR leukemia): 13.7 µM
GI50 (SF-268 CNS): 3.54 µM
TGI (SF-268 CNS): 17.8 µM
GI50 (TK-10 renal): 3.05 µM
TGI (TK-10 renal): 14.7 µM
GI50 (MALME-3M melanoma): 10.8 µM
TGI (MALME-3M melanoma): 26.7 µM
GI50 (HCC-2998 colon): 2.76 µM
TGI (HCC-2998 colon): 11.3 µM
GI50 (A549 NSCLC): 5.31 µM
TGI (A549 NSCLC): 20.5 µM
GI50 (A498 renal): 1.91 µM
TGI (A498 renal): 6.74 µM
GI50 (SK-MEL-28 melanoma): 6.63 µM
TGI (SK-MEL-28 melanoma): 21.8 µM
GI50 (CAKI-1 renal): 2.7 µM
TGI (CAKI-1 renal): 17.7 µM
GI50 (KM12 colon): 2.28 µM
TGI (KM12 colon): 11.4 µM
GI50 (T-47D breast): 4.46 µM
TGI (T-47D breast): 32.5 µM
GI50 (NCI-H460 lung): 3.7 µM
TGI (NCI-H460 lung): 13.3 µM
GI50 (HOP-62 NSCLC): 3.61 µM
TGI (HOP-62 NSCLC): 17.7 µM
GI50 (ACHN renal): 3.59 µM
TGI (ACHN renal): 14.5 µM
GI50 (CCRF-CEM leukemia): 2.52 µM
TGI (CCRF-CEM leukemia): 16.4 µM
GI50 (MOLT-4 leukemia): 3.65 µM
TGI (MOLT-4 leukemia): 24.9 µM
GI50 (OVCAR-3 ovarian): 1.88 µM
TGI (OVCAR-3 ovarian): 5.47 µM
GI50 (SNB-19 CNS): 3.02 µM
TGI (SNB-19 CNS): 14 µM
GI50 (SW-620 colon): 3.18 µM
TGI (SW-620 colon): 14.6 µM
GI50 (MDA-MB-435): 0.585 µM
TGI (MDA-MB-435): 2.09 µM
GI50 (OVCAR-8 ovarian): 3.27 µM
TGI (OVCAR-8 ovarian): 12.4 µM
GI50 (SNB-75 CNS): 2.04 µM
TGI (SNB-75 CNS): 10.8 µM
GI50 (PC-3 prostate): 3.1 µM
TGI (PC-3 prostate): 16.1 µM
GI50 (RPMI-8226 leukemia): 2.95 µM
TGI (RPMI-8226 leukemia): 9.87 µM
GI50 (OVCAR-5 ovarian): 3.46 µM
TGI (OVCAR-5 ovarian): 14 µM
GI50 (SF-539 CNS): 2.1 µM
TGI (SF-539 CNS): 5.62 µM
GI50 (OVCAR-4 ovarian): 4.85 µM
TGI (OVCAR-4 ovarian): 19.7 µM
GI50 (NCI-H522 lung): 1.3 µM
TGI (NCI-H522 lung): 5.63 µM
GI50 (NCI/ADR-RES ovarian): 3.7 µM
TGI (NCI/ADR-RES ovarian): 17.2 µM
GI50 (UACC-62 melanoma): 3.09 µM
TGI (UACC-62 melanoma): 19.8 µM
GI50 (HS 578T breast): 3.27 µM
TGI (HS 578T breast): 17.9 µM
GI50 (HCT-116 colon): 2.48 µM
TGI (HCT-116 colon): 11.2 µM
GI50 (HL-60(TB) leukemia): 2.4 µM
TGI (HL-60(TB) leukemia): 8.23 µM
GI50 (M14 melanoma): 1.91 µM
TGI (M14 melanoma): 7.57 µM
GI50 (K-562 leukemia): 1.25 µM
TGI (K-562 leukemia): 21 µM
GI50 (RXF 393 renal): 2.25 µM
TGI (RXF 393 renal): 8.95 µM
GI50 (MDA-MB-231 breast): 3.6 µM
TGI (MDA-MB-231 breast): 15.5 µM
GI50 (UACC-257 melanoma): 11.9 µM
TGI (UACC-257 melanoma): 32.7 µM
GI50 (SK-OV-3 ovarian): 3.73 µM
TGI (SK-OV-3 ovarian): 15.2 µM
GI50 (UO-31 renal): 4.78 µM
TGI (UO-31 renal): 19.9 µM
